One compound from PMC9562371 (RSC Advances, 2022) can be followed below.

Usually Kd stands for the constant that tells how readily two partners part at equilibrium.

In this experiment the target is T1, m-OLF (myocilin OLF domain) (Homo sapiens, UniProt Q99972).
T1 sequence (Q99972 244-504): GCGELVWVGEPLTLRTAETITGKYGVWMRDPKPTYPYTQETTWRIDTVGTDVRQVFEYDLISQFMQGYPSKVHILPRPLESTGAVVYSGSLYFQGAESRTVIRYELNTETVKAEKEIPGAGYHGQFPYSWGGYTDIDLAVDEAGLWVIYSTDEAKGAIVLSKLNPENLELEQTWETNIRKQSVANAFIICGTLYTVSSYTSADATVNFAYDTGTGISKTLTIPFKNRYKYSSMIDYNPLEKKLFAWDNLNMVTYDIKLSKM
The experiment can be described thus: surface plasmon resonance. It is filed as binding. (In SPR one partner is held on a chip, and binding of the other changes the refractive index at the surface.)

`O=C(O[C@@H]1Cc2c(O)cc(O)cc2O[C@@H]1c1ccc(O)c(O)c1)c1cc(O)c(O)c(O)c1` [ECG]: binding was put at a Kd of 19.8 µM.
